# Where “and” joins values, the source holds several entries; their conditions need not be identical. Equal entries are not always repeated.
# Columns and labels:
# [1] = biological target: T1, PKR in mouse RBCs (Mus musculus, UniProt P53657); test: PKR activation in mouse red blood cells; type: cell-based
# T1 construct: endogenous in cells; host or cells: mouse RBCs freshly isolated from whole blood
# Source text: Mouse RBCs were isolated fresh from whole blood using a Ficoll gradient and assayed with methods similar to those used in the human RBCs assays.
# [2] = Phase 1: plasma pharmacokinetics in SCD patients; type: in vivo; conditions: human, oral, SCD (N = 5), single dose 700 mg
# Source text: This is a first-in-human (FIH), Phase 1 study of Compound 1 that will characterize the safety, PK, and PD of Compound 1 after a single dose and after repeated dosing first in healthy adult volunteers and then in adolescents or adults with sickle cell disease. Initially, a dose range of Compound 1 in single ascending dose (SAD) escalation cohorts will be explored in healthy subjects. Enrollment of healthy subjects into 2-week multiple ascending dose (MAD) escalation cohorts will be initiated once the safety and PK from at least two SAD cohorts is available to inform the doses for the 2-week MAD portion of the study. The MAD cohorts will then run in parallel to the single dose cohorts. A single dose cohort is planned to understand food effects (FE) on the PK of Compound 1. […] Multiple dose studies in SCD subjects will then be initiated upon completion of MAD studies in healthy volunteers. Compound 1 will be administered in 25 mg and 100 mg tablets delivered orally, prepared as described in Example 1, Step 7.
# (§1) In this study, SAD/MAD cohorts are randomized (3 to 1) to receive Compound 1 or placebo (P). Compound 1 was evaluated first in 4 healthy SAD cohorts and 4 healthy MAD (14-day dosing period) cohorts. Based on the safety, and PK/PD profile from HS, Compound 1 is then evaluated in 1 SCD SAD cohort and 2 SCD MAD cohorts. Specifically, based on the safety and pharmacokinetic/pharmacodynamics (PK/PD) profile in healthy volunteer studies, Compound 1 is evaluated in patients (pts) with SCD, first in a single dose (SD or SAD) cohort and then in multiple-dose (MD or MAD) cohorts (14-day and 12-week). Safety assessments include AEs, vital signs, ECGs and laboratory parameters. PK/PD blood sampling was performed on Day 1 (SAD/MAD) and Day 14 (MAD) and up to 72 h after the last dose and at the end-of-study visit. PD parameters included 2,3-DPG, ATP, and p50 in all cohorts with additional PD studies (including oxygen scan) performed only in the SCD cohorts. PD parameters included 2,3-DPG, ATP, p50, RBC deformability with controlled deoxygenation and reoxygenation (Lorrca® oxygen scan) and varying osmolality (Lorrca® osmoscan)). To maintain study blind, pt identifiers were removed when needed.
# A potential exposure to the maximum PD response dose range to evaluate in patients with SCD was identified. Based on the safety and PK/PD profile in healthy volunteer studies, a 700 mg single dose was evaluated in patients with SCD (n=7). A single 700 mg dose of Compound 1 was selected to evaluate in patients with SCD to enable daily dosing cohorts at lower exposures.
# In the SCD single dose cohort, seven patients received either Compound 1 (n=5) or placebo (n=2).
# [3] = Preclinical safety: arrhythmia risk, mutagenicity, panels of receptors, enzymes, ion channels and kinases in vitro
# [4] = tested on: ATP blood levels; test: Phase 1: blood ATP levels in SCD patients; type: in vivo, human; conditions: single 700 mg dose (FIG. 54A)
# Protocol: as §1, with “PD parameters included 2,3-DPG, ATP, and p50 in all cohorts with additional PD studies (including oxygen scan) performed only in the SCD cohorts. PD parameters included 2,3-DPG, ATP, p50, RBC deformability with controlled deoxygenation and reoxygenation (Lorrca® oxygen scan) and varying osmolality (Lorrca® osmoscan)). To maintain study blind, pt identifiers were removed when needed.” left out
# The following table reports the mean percentage change in ATP blood levels, relative to baseline, measured over time in SCD patients after a single dose of Compound 1 (700 mg):
# ATP levels were increased from baseline in patients receiving Compound 1, resulting in improved RBC function and reduced hemoloysis. The following table reports the mean percentage change in ATP blood levels, relative to baseline, measured over time after the first dose on days 1 and 14 in SCD patients who received daily doses of Compound 1 (300 mg QD) for 14 days: […]
# [5] = Log D7.4; type: physicochemical; conditions: pH 7.4
# [6] = tested on: 2,3-DPG blood levels; test: Phase 1: blood 2,3-DPG levels in SCD patients; type: in vivo, human
# Protocol: as §1, with “PD parameters included 2,3-DPG, ATP, p50, RBC deformability with controlled deoxygenation and reoxygenation (Lorrca® oxygen scan) and varying osmolality (Lorrca® osmoscan)). To maintain study blind, pt identifiers were removed when needed.” left out
# The following table reports the mean percentage change in 2,3-DPG blood levels, relative to baseline, measured over time in SCD patients after a single dose of Compound 1 (700 mg):
# The following table reports the mean percentage change in 2,3-DPG blood levels, relative to baseline, measured over time after the first dose on days 1 and 14 in SCD patients who received daily doses of Compound 1 (300 mg QD) for 14 days: […]
# [7] = biological target: T2, CYP2C9 (Homo sapiens, UniProt P11712); test: Single substrate DDI assay, reversible CYP inhibition in human liver microsomes; type: in vitro ADME
# T2 construct: from tissue; host or cells: human liver microsomes
# T2 sequence (P11712 whole entry): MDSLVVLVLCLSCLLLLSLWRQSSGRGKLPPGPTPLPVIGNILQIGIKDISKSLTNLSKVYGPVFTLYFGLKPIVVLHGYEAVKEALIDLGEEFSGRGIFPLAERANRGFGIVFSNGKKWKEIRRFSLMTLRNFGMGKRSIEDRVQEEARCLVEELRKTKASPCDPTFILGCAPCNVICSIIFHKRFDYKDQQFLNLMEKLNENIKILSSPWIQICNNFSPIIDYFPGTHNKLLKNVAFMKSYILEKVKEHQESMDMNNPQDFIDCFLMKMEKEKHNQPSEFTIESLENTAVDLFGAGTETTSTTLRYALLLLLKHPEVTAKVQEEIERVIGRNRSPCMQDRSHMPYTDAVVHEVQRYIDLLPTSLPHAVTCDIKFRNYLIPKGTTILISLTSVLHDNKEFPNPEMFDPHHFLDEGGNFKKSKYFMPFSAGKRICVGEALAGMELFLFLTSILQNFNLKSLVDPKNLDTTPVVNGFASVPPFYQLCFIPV
# [8] = biological target: wt-PKR (Homo sapiens, UniProt P30613); test: Enzyme assay of PKR kinetics and activation (Example 3); type: biochemical; conditions: PEP at or below Km
# Chain of wt-PKR (P30613 whole entry): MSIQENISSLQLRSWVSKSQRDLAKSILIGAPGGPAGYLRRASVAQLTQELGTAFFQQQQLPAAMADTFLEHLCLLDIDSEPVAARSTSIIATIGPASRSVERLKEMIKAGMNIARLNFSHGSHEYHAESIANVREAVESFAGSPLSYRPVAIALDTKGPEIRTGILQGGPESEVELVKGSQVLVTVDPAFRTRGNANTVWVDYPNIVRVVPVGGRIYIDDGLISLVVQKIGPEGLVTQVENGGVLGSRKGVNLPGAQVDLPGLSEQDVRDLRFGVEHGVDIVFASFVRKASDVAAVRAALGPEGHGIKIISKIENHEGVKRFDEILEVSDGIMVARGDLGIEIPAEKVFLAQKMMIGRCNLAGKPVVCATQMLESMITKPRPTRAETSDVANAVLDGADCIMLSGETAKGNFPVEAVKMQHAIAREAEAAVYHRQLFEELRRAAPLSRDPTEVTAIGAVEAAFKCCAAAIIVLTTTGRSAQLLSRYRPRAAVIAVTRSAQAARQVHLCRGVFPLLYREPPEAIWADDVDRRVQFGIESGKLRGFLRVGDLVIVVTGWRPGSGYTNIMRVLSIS
# Protocol: The ability of Compound 1 to activate PKR in enzyme-based assays was measured.
# Tests were conducted in the presence and absence of fructose-1,6-bisphosphate (FBP), a known allosteric activator of PKR.
# [9] = Phase 1: hematologic and hemolytic parameters in SCD patients; type: in vivo, human; conditions: single 700 mg dose, 24 h
# [10] = tested on: CYP3A4; test: CYP mRNA induction in cultured human hepatocytes; type: in vitro ADME; conditions: donors, HCS-40 individually
# [11] = tested on: H295R adreno-cortical carcinoma cell line; test: Steroid modulation screen in vitro; type: cell-based; conditions: tested 200 to 0.0002 μM; only at the top concentration
# Protocol: To assess potential effects on steroidogenesis, Compound 1 was screened for steroid modulation in vitro using the H295R adreno-cortical carcinoma cell line (at 200 to 0.0002 μM) and in an assay to monitor cell viability (MTT Kit). Compound 1 indicated steroid modulation potential (% over vehicle) only at 200 μM, the top concentration tested, with 100% cellular viability at concentrations≤20 μM (90% viability at 200 μM).
# T1 sequence (P53657 whole entry): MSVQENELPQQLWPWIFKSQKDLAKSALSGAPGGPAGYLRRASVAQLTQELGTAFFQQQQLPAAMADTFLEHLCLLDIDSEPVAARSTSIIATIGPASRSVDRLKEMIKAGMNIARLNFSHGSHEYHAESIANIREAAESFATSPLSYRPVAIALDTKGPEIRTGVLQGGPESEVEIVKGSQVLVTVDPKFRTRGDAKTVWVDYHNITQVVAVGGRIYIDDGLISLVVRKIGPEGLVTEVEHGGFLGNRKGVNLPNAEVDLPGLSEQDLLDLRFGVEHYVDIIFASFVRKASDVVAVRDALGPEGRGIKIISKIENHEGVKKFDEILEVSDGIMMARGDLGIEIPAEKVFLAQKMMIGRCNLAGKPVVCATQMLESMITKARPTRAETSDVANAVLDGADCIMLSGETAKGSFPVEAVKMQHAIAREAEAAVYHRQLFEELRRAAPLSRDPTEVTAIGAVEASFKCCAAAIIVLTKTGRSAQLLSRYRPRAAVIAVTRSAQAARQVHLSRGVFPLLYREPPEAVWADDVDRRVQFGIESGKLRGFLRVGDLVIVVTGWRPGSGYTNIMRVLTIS
compound,measurement,setting,value
"O=C([C@H](CO)c1ccccc1)N1CC2=C(C1)CN(S(=O)(=O)c1cnc3c(c1)OCCO3)C2 (single isomer, unassigned) [Compound 1]",Max − Min (%),[1]; individual replicates 1-2,<50% and <100%
same,Mean Max − Min (%),[1]; mean,<100%
same,AUC(0-inf),[2]; geometric mean (geometric CV),7.3 µg·h/mL
same,Cmax,[2]; geometric mean (geometric CV),2.58 µg/mL
same,half-life,[2]; geometric mean (geometric CV),14.9 h
same,Tmax,"[2]; median [min, max]",2 h
same,"preclinical evidence of arrhythmia risk, mutagenicity, or nonspecific binding activity",[3],"has not demonstrated any preclinical evidence of arrhythmia risk, mutagenicity, or nonspecific binding activity"
same,lag of maximum ATP increase behind maximum plasma concentration,[4],at least 24 hours
same,logD,[5],1.09
same,"Mean percentage change in 2,3-DPG blood levels","[6]; SCD patients, single dose 700 mg, 0 h after dose",−0%
same,"lag of maximum 2,3-DPG decrease behind maximum plasma concentration","[6]; SCD, single 700 mg dose (FIG. 54B)",about 24 hours
same,IC50,[7],> 30 µM
same,AC50,[8],< 0.1 µM
same,mean Hb difference versus placebo,[9],~0.9 g/dL
same,mRNA Fold Induction CYP3A4,[10]; 0.033 μM,0.940 fold and 1.09 fold and 1.25 fold
same,mRNA Fold Induction CYP3A4,[10]; 0.1 μM,1.13 fold and 0.875 fold and 0.889 fold
same,mRNA Fold Induction CYP3A4,[10]; 0.33 μM,1.11 fold and 1.18 fold and 0.836 fold
same,mRNA Fold Induction CYP3A4,[10]; 1 μM,1.41 fold and 1.07 fold and 1.18 fold
same,mRNA Fold Induction CYP3A4,[10]; 3.3 μM,1.84 fold and 1.25 fold and 1.62 fold
same,mRNA Fold Induction CYP3A4,[10]; 10 μM,3.60 fold and 2.23 fold and 1.29 fold
same,concentration at which steroid modulation potential (% over vehicle) was indicated,[11],200 µM

# Reference: patent US20220087983A1, “ACTIVATING PYRUVATE KINASE R” (FORMA Therapeutics, Inc., priority 2020, published 2022)
